Experimental data reported in patent US20250368932A1, “SYSTEM FOR MIMICKING CELLULAR MICROENVIRONMENT AND METHOD FOR EVALUATING CELL DEVELOPMENT OR DRUG THERAPY EFFECTIVENESS USING THE SAME” (Anivance AI Corporation, priority 2024, published 2025).

What was measured:
[1] = system: Non-Small Cell Lung Cancer Tumor Spheroids (co-cultured cell spheroids, A549 / HFL-1); test: Morphology and area of tumor spheroids after drug administration on the chip (bright-field, quantified); assay type: cell-based, human
Description: In some embodiments, the A549 cell line of the present disclosure is purchased from ATCC, and is commonly used for developing lung cancer drugs and drug delivery experiments. The A549 cells are cultured in F12K cell culture medium (10-025, Corning) supplemented with 10% fetal bovine serum (FBS) (35-076-EV, Corning). The cells are taken out from the liquid nitrogen tank and thawed in a […] water bath. The cell suspension in the cryovial is extracted and mixed with 1 mL of cell culture medium, followed by adding it to a T-75 cell culture flask containing 9 mL of cell culture medium for uniform mixing and culture. When cell confluence reaches 80%, cell passaging is carried out. Cells are first rinsed with DPBS and then detached from the T-75 cell culture flask using trypsin. The detached A549 cells are transferred to a 15 mL centrifuge tube, and centrifuged at 1000 rpm for 5 minutes at 24° C. After centrifugation, the cells are concentrated at the bottom of the centrifuge tube, and the supernatant is aspirated. Subsequently, 500 μL of cell culture medium is added, mixed thoroughly, and the cells are resuspended. A 20 μL cell suspension is then withdrawn, and the cell count is determined using an automatic cell counter, which is used to estimate the total number of cells in the centrifuge tube. The estimated number of cells is then seeded back into the T-75 cell culture flask.
In some embodiments, the HFL-1 cell line of the present disclosure is purchased from BCRC, and is commonly used for co-culture and cytotoxicity studies. The cells are cultured in F12K cell culture medium (10-025, Corning) supplemented with 10% fetal bovine serum (FBS) (35-076-EV, Corning). The cells are removed from the liquid nitrogen tank and thawed in a 37° C. water bath. […] A 20 μL cell suspension is then withdrawn, and the cell count is determined using an automatic cell counter to estimate the total number of cells in the centrifuge tube. […]

[2] = system: cell spheroids (A549); test: Effect of TGF-β on spreading and metastasis of cell spheroids cultured on the hydrogel; assay type: cell-based, human
Description: In some embodiments, the present disclosure uses Ultra-Low Attachment (ULA) 96-well plates (7007, Corning) to conduct in vitro 3D cell spheroid cultures. The ULA 96-well plates feature an extremely low attachment surface that minimizes cell adhesion and protein absorption, facilitating the formation of cell spheroids. In each well of the ULA 96-well plate, 1000 to 8000 cells (with each well containing 200 μL of cell culture medium) are added, and the morphological changes of the cells are observed. After four days of cell seeding, compact cell spheroids are formed.
In some embodiments, before seeding cell spheroids, the chip is irradiated with ultraviolet (UV) light for 30 minutes and washed with filtered 75% alcohol, 95% alcohol, and deionized water, respectively. […]
In some embodiments, Image-J software is used to perform quantitative analysis of the cell spheroid spreading area. […] The spreading area of cell spheroids is then quantitatively analyzed.
After culturing on the hydrogel for 48 hours, the development of the cell spheroids is observed using a fluorescence microscope. […] The original cell spheroids display red fluorescence indicating the expression of vimentin. […] “Top view” and “side view” refer to the respective perspectives, and the green fluorescence labels F-actin.

Compound	shape of cell spheroids after drug treatment ([1]; Dox 0, 40, 90 and 320 μM, 48 hours, on chip, FIG. 10A/10B)	area of tumor spheroids (quantitative analysis) ([1]; Dox 0, 40, 90 and 320 μM, FIG. 10C/10D)	therapeutic effect on static tumor spheroids (summary) ([1]; static tumor spheroids, single drug)	outward expansion and migration of cells in the cell spheroids (spreading area) ([2]; 20 ng/ml TGF-β, 48 hours on hydrogel, versus untreated, FIG. 3B/3C)	structure of cell spheroids ([2]; prolonged TGF-β treatment, FIG. 3D)
COc1cccc2c1C(=O)c1c(O)c3c(c(O)c1C2=O)C[C@@](O)(C(=O)CO)C[C@@H]3O[C@H]1C[C@H](N)[C@H](O)[C@H](C)O1 [Dox]	maintain their original shape	no significant decrease	no therapeutic effect		
transforming growth factor-beta [TGF-β]				increased outward expansion and migration range	disaggregate and expand outward
